Data set [1] concerns C. difficile. Briefly: In vitro antibacterial activity: MIC by broth microdilution. It counts as cell-based, Clostridium difficile. As to conditions: Clostridioides difficile, anaerobic, tested range 0.008 to 8 μg/ml. The method, then: MICs (minimum inhibitory concentrations) were determined by the broth microdilution technique with 96-well microdilution plates. […] The plates were filled with 100 μl of reinforced clostridial medium (Oxoid; Unipath Ltd., Basingstoke, United Kingdom) per well containing the final antibiotic concentrations. The plates were thawed and preincubated for 3 hours in an anaerobic chamber (Thermal, USA) containing an atmosphere of 80% N2, 15% CO2, and 5% H2. The bacterial inocula were prepared by suspending growth from 48 hours cultures in reinforced clostridial medium. The final inoculum was approximately 1.0×10^5-6 CFU/well. The plates were incubated for 48 hours at 37° C. in the anaerobic chamber. The MIC was defined as the lowest antibiotic concentration that inhibited visible growth. Ciprofloxacin, vancomycin and metronidazole were used as a positive control.
A general note: Dilution methods test growth across graded concentrations, often in twofold steps.

[2] abbreviates: strain C. difficile ATCC43255, 48 hours at 37° C., read-out: MIC against C. difficile ATCC43255.
Setting [3] is: strain C. difficile ATCC70092, 48 hours at 37° C., read-out: MIC against C. difficile ATCC70092.
[4] abbreviates: strain C. difficile ATCC7000057, 48 hours at 37° C., read-out: MIC against C. difficile ATCC7000057.
Where [5] appears, read: strain C. difficile IQCC23903, 48 hours at 37° C., read-out: MIC against C. difficile IQCC23903.

Structures are written as SMILES. ≈ marks a conversion by molar mass, not a printed value. Read-outs that look alike come from different tables or passages of the source.

In the case of `Cc1c(-c2cnc3[nH]c(=O)ccc3c2)c(F)cc2c(=O)c(C(=O)O)cn(C3CC3)c12` [Compound 1-2], the melting point is above 300 °C. In addition, the MIC in data set [1] (setting [2]) lay in the range of 0.032 to 0.125 µg/mL (≈ 0.0789 to 0.308 µM). In data set [1] (setting [3]), the MIC is 0.032 to 0.125 µg/mL (≈ 0.0789 to 0.308 µM). The MIC in data set [1] (setting [4]) is 0.032 to 0.125 µg/mL (≈ 0.0789 to 0.308 µM). The MIC in data set [1] (setting [5]) fell in the range of 0.063 to 0.25 µg/mL (≈ 0.155 to 0.617 µM).
For the molecule `Cc1c(-c2cnc(N)c(C#N)c2)c(F)cc2c(=O)c(C(=O)O)cn(C3CC3)c12` [Compound 2-18], the MIC fell in the range of 0.016 to 0.063 µg/mL (≈ 0.0423 to 0.167 µM) in data set [1] (setting [2]), 0.008 to 0.063 µg/mL (≈ 0.0211 to 0.167 µM) in data set [1] (setting [3]), 0.016 to 0.063 µg/mL (≈ 0.0423 to 0.167 µM) in data set [1] (setting [4]) and 0.032 to 0.063 µg/mL (≈ 0.0846 to 0.167 µM) in data set [1] (setting [5]).
`Cc1c(-c2cc(Cl)c3nccn3c2)c(F)cc2c(=O)c(C(=O)O)cn(C3CC3)c12` [Compound 3-11] displayed a melting point of 307 to 311 °C. In data set [1] (setting [2]), the MIC lay in the range of 0.008 to 0.032 µg/mL (≈ 0.0194 to 0.0777 µM). Further, the MIC in data set [1] (setting [3]) lay in the range of 0.008 to 0.032 µg/mL (≈ 0.0194 to 0.0777 µM). The MIC in data set [1] (setting [4]) was 0.016 to 0.032 µg/mL (≈ 0.0389 to 0.0777 µM). Moreover, the MIC in data set [1] (setting [5]) fell in the range of 0.008 to 0.063 µg/mL (≈ 0.0194 to 0.153 µM).

Broadly, the MIC is the smallest concentration in the dilution series that meets the test's criterion for growth inhibition. As a reminder, the melting point is the temperature of the solid-liquid transition.
